Data on 12 compounds can be found in patent EP0148660A1, “Beta-carboline derivatives, process for their preparation and medicaments containing them” (Etablissement Public dit: CENTRE NATIONAL DE LA RECHERCHE …, priority 1983, dated 1985).

The target in assay [1] is récepteur des benzodiazépines. Kind of assay: Displacement of 3H-flunitrazepam from its receptor in rat cortex tissue (in vitro). The format is binding. The conditions noted are these: for IC50: 3H-flunitrazépam 4 nM, cortex du Rat, 0°, 60 mn, pH 7,4. An excerpt:
Pour déterminer l'activité pharmacologique des molécules de cette invention, leur affinité pour le récepteur des benzodiazépines a d'abord été étudiée. Cette affinité est déterminée par l'aptitude de la molécule à déplacer une benzodiazépine radioactive (le flunitrazépam tritié) de son récepteur.
Ce pouvoir de déplacement de la molécule est indiqué par son IC50, c'est-à-dire la concentration du produit nécessaire pour déplacer 50 % des liaisons spécifiques du ^3H-flunitrazépam avec son récepteur, à partir de tissus préparés du cerveau du Rat.
Pour ces essais in vitro, il s'agit d'incuber à 0° pour 60 mn une suspension de tissus provenant du cortex du Rat (= 10 mg de tissu par échantillon) dans un milieu tamponné (pH 7,4, 0,05 M Tris-HCl) en présence d'une concentration fixe de ^3H-flunitrazépam (= 4 nM, 89 Ci/mmole) et d'une concentration variable du produit (10^-3 à 10^-9 M). La suspension est ensuite filtrée et la radioactivité restant sur le filtre est déterminée par scintillation. L'information obtenuepermet de dessiner une courbe de déplacement contre la concentration du produit et de calculer l'IC50 du produit.

The test system of assay [2] is Babouin photosensible. The assay is described as follows: Photosensitive baboon, intermittent light stimulation (SLI). The format is in vivo. An excerpt: Cette molécule appartient à la classe des agonistes inverses. Elle provoque des convulsions. Le modèle utilisé est le Babouin photosensible. Sur ce modèle, l'application de stimulation lumineuse intermittente (SLI) par l'intermédiaire d'une lampe stroboscopique provoque des manifestations épileptiques d'amplitude variable. Suivant l'intensité de leur réponse, les animaux sont classés de 0 à + 4.
2 animaux PP 86 et 88 ont été utilisés. Le 86 est + 3 au bout de 30 secondes de SLI, le 5.5.1983. L'administration de l'éthylamino-3-β-carboline (1 mg/kg) réduit cette latence à 10 secondes, 2 minutes après l'injection. lh30 après l'injection, cette latence est toujours très diminuée (20 secondes). […] Ces résultats sont très différents de ceux de la méthyl-S-carboline dont l'effet convulsivant disparait au bout de 20 minutes chez le Babouin.
Le 88 a montré le même type de résultat. Après 15 secondes de SLI, il est + 3 le 5.5.1983. Après l'administration de 2 mg/kg de N-éthyl carboline, la SLI provoque un stade + 3 au bout de 5 secondes. […] Après 5 heures, la latence est toujours raccourcie (10 secondes).

For assay [3], the system named is Babouin photosensible. The conditions noted are these: comparison; cited from earlier work.
For assay [4], the system named is souris. The assay is described as follows: Antagonism of convulsions induced by méthyl β-carboline in mice. The following applies: 1 mg/kg s.c. 5 minutes before méthyl β-carboline 1 to 10 mg/kg s.c. In kind it is in vivo. The protocol: Par contre, cette molécule antagonise les effets convulsivants induits par un agoniste inverse de la méthyl-β-carboline.
100 souris (30 g, ♂) sont traitées par des doses croissantes de méthyl B-carboline de 1 mg à 10 mg/kg s.c. La moitié des souris a été prétraitée par 1 mg/kg de méthyl carbamate s.c. 5 minutes avant l'injection de méthyl β-carboline.

For assay [5], the system named is souris. The assay is described as follows: Convulsions induced by pentylenetetrazol (PTZ) in mice. The format is in vivo. The following applies: PTZ 70 mg/kg s.c. As to the method:
40 souris "Swiss", d, 30 g recoivent 70 mg/kg s.c. de PTZ. Les souris sont divisées en 4 lots : 1 lot contrôle, 1 lot reçoit 10 mg/kg s.c. de méthyl carbamate, 5 minutes avant le PTZ, 1 lot la même dose de méthyl carbamate 15 minutes avant, et le dernier lot une dose de 1 mg/kg de méthyl carbamate 15 minutes avant. 60 % à 80 % des souris présentent des convulsions dans les 4 lots sans différences statistiquement significatives entre les lots.

For assay [6], the system named is souris. Kind of assay: Blockade of diazepam-induced sedation, rotarod in mice. In kind it is in vivo. The following applies: 10 mg/kg s.c.; diazépam 2 mg/kg s.c. As to the method: ②. Blocage de la sédation induite par le diazépam :
20 souris (30 g, ♂) ont été entraînées sur le rotarod (bâton de 2,5 cm 0 tournant à 4 rev/mn) pendant 5 minutes. Les souris entraînées seront utilisées si, lors du test précédant l'injection, elles restent 1 minute sans tomber du bâton. Les souris reçoivent toutes 2 mg/kg s.c. de diazépam et sont testées toutes les 10 minutes. Le pourcentage de souris restant 1 minute sur le bâton est indiqué en ordonnée de la figure.
(In general: In the rotarod test animals must keep their balance on a rotating rod.)

The test system of assay [7] is souris. The assay is described as follows: Conflict test (Skinner box), anxiolytic effect of diazepam in mice. In kind it is in vivo. As to the method:
③. Absence d'effet antagoniste sur les effets anxiolytiques du diazépam : • 9 souris ont été entraînées dans un test de conflit décrit par PRADO et al. (Nature 301, 64-66, 1983). En bref les animaux privés de nourriture sont soumis à des séances quotidiennes de 15 minutes dans une boîte de Skinner. Ces sessions comprennent successivement : 5 mn sans conflit (où la souris reçoit une boulette de nourriture chaque fois qu'elle appuie sur la pédale), 5 mn de conflit (où l'appui sur la pédale entraîne à la fois la délivrance d'une boulette et un choc électrique léger), 5 mn sans conflit. Les performances des souris (nombre d'appuis/mn) baissent durant les phases de conflit.

The test system of assay [8] is souris. The assay is described as follows: Antagonism of the anticonvulsant action of diazepam (PTZ) in mice. In kind it is in vivo. The following applies: PTZ 70 mg/kg s.c.; diazépam 1 mg/kg s.c. 25 minutes before, carbamate 10 mg/kg 15 minutes before; 80 % of controls convulse. The protocol: ① Absence d'effets antagonistiques sur l'action anticonvulsivante du diazépam :
20 souris (30 g, ♂) ont été traitées avec 70 mg/kg s.c. de PTZ. Une moitié a servi de contrôle; l'autre moitié a reçu 1 mg/kg s.c. de diazépam 25 minutes avant le PTZ et 10 mg/kg de carbamate 15 minutes avant le PTZ.

For assay [9], the system named is récepteur des benzodiazépines. Kind of assay: In vivo displacement of tritiated flunitrazepam in mouse brain regions. Also on record: species or system souris. The following applies: for flunitrazépam tritié déplacé: 10 mg/kg; for DE50 (dose effective pour déplacer 50 % du flunitrazépam tritié): s.c. As to the method: Ceci est démontré par des tests de déplacement du flunitrazépam tritié par le méthyl β-carbamate invivo.
200 µCi/kg de flunitrazépam tritié sont injectées i.v. chez la souris. Après 10 minutes, une dose connue du méthyl β-carbamate (allant de 2,5 mg/kg jusqu'à 10 mg/kg) est injectée s.c. et 10 minutes plus tard, l'animal est sacrifié. Le cerveau est rapidement disséqué. Le cervelet, le cortex et l'hippocampe sont isolés et broyés séparément et ensuite filtrés. La quantité de radio-activité restant sur le filtre est inversement proportionnelle au pouvoir de déplacement du méthyl β-carbamate.

Consider `CCOC(=O)Nc1cc2c(cn1)[nH]c1ccccc12` [-NHCO2CH2CH3, éthoxycarbonylamino-3-β-carboline], for which the IC50 (in general, the concentration that inhibits the measured activity by half) in assay [1] was found to be 80 nM.

`CS(=O)(=O)Nc1cc2c(cn1)[nH]c1ccccc12` [-NHSO2CH3, méthylsulfonylamino-3-β-carboline] displayed an IC50 in [1] of 62000 nM. Compared with the last compound, the IC50 is about 780-fold higher.

Turning to `CCNc1cc2c(cn1)[nH]c1ccccc12` [-NHCH2CH3, éthylamino-3-β-carboline], in the assay with Babouin photosensible [2] (animal 88, 2 mg/kg), the “persistence of the effect on latency” value is on record as “persiste une heure”. Moreover, the “latence du stade + 3 sous SLI” value in the assay with Babouin photosensible [2] (animal 88, 2 mg/kg (15 secondes before treatment)) is recorded as 5 secondes; in the assay on Babouin photosensible [2] (animal 88, 2 mg/kg, après 5 heures), 10 secondes; in the assay with Babouin photosensible [2] (animal PP 86, 1 mg/kg, 1h30 après l'injection), 20 secondes; in the assay on Babouin photosensible [2] (animal PP 86, 1 mg/kg, 2 minutes après l'injection (30 secondes before treatment)), 10 secondes. Further, the “spontaneous seizure after injection” value with Babouin photosensible [2] (animal PP 86, 1 mg/kg) is reported as “crise épileptique tonico-clonique spontanée”. In assay [1], this compound came in with an IC50 of 460 nM.

Compound `Nc1cc2c(cn1)[nH]c1ccccc12` [-NH2, amino-3-β-carboline] registered an IC50 in assay [1] of 25000 nM.

With `CN1C(=O)CN=C(c2ccccc2F)c2cc([N+](=O)[O-])ccc21` [Flunitrazepam, reference compound], the IC50 in assay [1] worked out at 4 nM. Compared with the last compound, the IC50 is about 6200-fold lower.

Consider `COC(=O)c1cc2c(cn1)[nH]c1ccccc12` [méthyl-S-carboline, méthyl β-carbolyne-3-carboxylate], for which the “time after which the convulsant effect disappears” value in the assay on Babouin photosensible [3] was 20 min.

`CCOC(=O)c1cc2c(cn1)[nH]c1ccccc12` [-CO2CH2CH3, ester éthyliquede l'acide β-carboline-3-carboxylique, reference compound] gave an IC50 in assay [1] of 2 nM.

Take `COC(=O)Nc1cc2c(cn1)[nH]c1ccccc12` [-NHCO2CH3, méthoxycarbonylamino-3-β-carboline]: in the assay on souris [4], the “effect on convulsions induced by méthyl β-carboline” value is on record as “antagonise d'une façon compétitive”. This compound also yielded an IC50 in [1] of 71 nM. Moreover, the “IC50 compared with éthylamino-3-β-carboline” value in assay [1] (relative to the IC50 of éthylamino-3-β-carboline) is reported as “presque dix fois plus faible”. Further, the “3H-flunitrazépam déplacé” value in assay [1] (à haute concentration) turned out to be 80%. The “activité agonistique sur les convulsions induites par le PTZ” value in the assay on souris [5] is reported as “dénuée d'activité agonistique”. Besides, the “effect on the sedative effect of diazépam (rotarod)” value in the assay with souris [6] is “antagonise l'effet sédatif du diazépam”. In the assay with souris [7] (given simultaneously with diazepam 5 mg/kg s.c.), the “effect on the anxiolytic effect of diazépam (conflict test)” value is reported as “ne bloque pas cet effet anxiolytique du diazépam”. Besides, the “convulsions in mice treated with diazépam + méthyl carbamate” value with souris [8] was “aucun phénomène convulsif”. Also, the “selectivity between brain regions / receptor sub-classes” value in [9] (cervelet (BZ1) versus cortex and hippocampe (BZ1 and BZ2), souris) is on record as “sélectivité pour les récepteurs du cervelet”. The figures for the “flunitrazépam tritié déplacé” value in assay [9] (cervelet), in assay [9] (cortex) and in assay [9] (hippocampe) were about 100%, about 75% and about 75%, respectively. Besides, the “DE50 (dose effective pour déplacer 50 % du flunitrazépam tritié)” value in assay [9] (cervelet, souris) is 4 mg/kg; in [9] (cortex, souris) it was 5 mg/kg; in assay [9] (hippocampe, souris) it was 6 mg/kg.

`CN1C(=O)CN=C(c2ccccc2)c2cc(Cl)ccc21` [diazepam, reference compound]: the “effect on the fall of lever presses during conflict” value with souris [7] (5 mg/kg s.c.) is given as “s'oppose à cette baisse des appuis”.

`O=C(Nc1cc2c(cn1)[nH]c1ccccc12)C(F)(F)F` [-NHCOCF3, trifluoroacétylamino-3-β-carboline] displayed an IC50 in assay [1] of 6300 nM.

As to `O=CNc1cc2c(cn1)[nH]c1ccccc12` [-NHCHO, formylamino-3-β-carboline], the IC50 in [1] worked out at 4700 nM.

Turning to `CC(=O)Nc1cc2c(cn1)[nH]c1ccccc12` [-NHCOCH3, acétylamino-3-β-carboline], the IC50 in [1] is 4000 nM.
